Where two headings read alike, the source gives them in different places.
Key:
pKa at 25 °C = assay type: physicochemical
[1] = Protonation constants with enthalpies and entropies, 15.0-45.0 °C; assay type: physicochemical; conditions: for ΔH° of log K carb Prot 2 / ΔH° of log K prot / ΔS° of log K carb Prot 2 / ΔS° of log K prot: 15.0-45.0 °C
Description: From the data in Table 2 the first protonation constants of AMPy, log K prot, are similar to MEA and BZA and fall within a suitable range for CO2 capture processes. Importantly, the large and desired protonation enthalpy (ΔH°) observed for BZA is largely maintained in the AMPy derivatives (−53.9 to −46.6).

[2] = cited from earlier work
[3] = Bubble reactor precipitation propensity with pure CO2; assay type: physicochemical; conditions: pure CO2 at atmospheric pressure, ambient temperature, aqueous
Protocol: As part of the absorbent screening process concentrated aqueous 3-AMPy was evaluated for its potential to form solid precipitates in the presence of CO2 at high concentrations. […] A simple bubble reactor was utilised to determine the precipitation propensity while passing a pure CO2 gas stream at atmospheric pressure into a concentrated 3-AMPy solution held at ambient temperature. A concentration of 80 wt % 3-AMPy was achieved before precipitation of the carbamate salt was observed. While a precipitate was observed, it is unlikely this will occur in the pilot plant given the aggressive conditions employed in the simple lab based study. Furthermore, similar precipitation behaviour has been observed for other common aqueous amines in highly concentrated solutions but which are operated successfully in pilot plants.

[4] = Carbamate stability constants with enthalpies and entropies, 15.0-45.0 °C; assay type: physicochemical
[5] = water, Table 7, (aminomethyl)pyridines, read-out: pKa of conjugate acid at 25° C. in water

Structure (SMILES)	pKa (pKa at 25 °C; 25 °C, read-out: pKa)	pKa (pKa at 25 °C; [5])	ΔH° of log K carb Prot 2 [1] [kJ · mol^−1]	ΔH° of log K prot [1] [kJ · mol^−1]	ΔS° of log K carb Prot 2 [1] [J · mol^−1 · K^−1]	ΔS° of log K prot [1] [J · mol^−1 · K^−1]	log K carb Prot 2 ([1]; 15 °C)	log K prot ([1]; 15 °C)	log K carb Prot 2 ([1]; 25 °C)	log K prot ([1]; 25 °C)	log K prot ([1]; 35 °C)	log K carb Prot 2 ([1]; 45 °C)	log K prot ([1]; 45 °C)	ΔH° of log K carb ([4]; 15.0-45.0 °C) [kJ · mol^−1]	ΔS° of log K carb ([4]; 15.0-45.0 °C) [J · mol^−1 · K^−1]	log K carb (carbamate stability constant) ([4]; 15 °C)	log K carb (carbamate stability constant) ([4]; 25 °C)	log K carb (carbamate stability constant) ([4]; 35 °C)	log K carb (carbamate stability constant) ([4]; 45 °C)	pKa at 25° C. ([2]; Table 8)	also measured
NCc1ccccn1 [2-AMPy, 2-(aminomethyl)pyridine]	8.6	8.7	−17.9	−46.6	24.5	−10.1	1.96	8.98	1.86	8.68	8.41	1.75	8.19								
OCCC1CCCCN1 (stereo not shown) [2-piperidinylethanol]																				10.5	pKa at 25° C. [2]: 10.5
OCC1CCCCN1 (stereo not shown) [2-piperidinylmethanol]																				10.1	pKa at 25° C. [2]: 10.1
NCc1cccnc1 [3-AMPy, 3-(aminomethyl)pyridine]	8.6	8.8	−14.5	−50.6	−15.2	0.8	3.42	9.11	3.34	8.83	8.51	3.17	8.26	−36.83	82.97	2.34	2.11	1.93	1.70		concentration achieved before precipitation of the carbamate salt [3]: 80 wt %; log K carb Prot 2 ([1]; 35 °C): 3.25
Nc1cccnc1 [3-Aminopyridine, reference compound]																					pKa of conjugate acid at 25° C. in water ([2]; Table 7, aniline and aminopyridines): 6.3
OCC1CCNCC1 [4-piperidinylmethanol]																				10.6	pKa at 25° C. [2]: 10.6

More lines, main results first:

pKa (pKa at 25 °C; 25 °C, read-out: pKa)	pKa (pKa at 25 °C; [5])	ΔH° of log K carb Prot 2 [1] [kJ · mol^−1]	ΔH° of log K prot [1] [kJ · mol^−1]	ΔS° of log K carb Prot 2 [1] [J · mol^−1 · K^−1]	ΔS° of log K prot [1] [J · mol^−1 · K^−1]	log K carb Prot 2 ([1]; 15 °C)	log K prot ([1]; 15 °C)	log K carb Prot 2 ([1]; 25 °C)	log K prot ([1]; 25 °C)	log K prot ([1]; 35 °C)	log K carb Prot 2 ([1]; 45 °C)	log K prot ([1]; 45 °C)	ΔH° of log K carb ([4]; 15.0-45.0 °C) [kJ · mol^−1]	ΔS° of log K carb ([4]; 15.0-45.0 °C) [J · mol^−1 · K^−1]	log K carb (carbamate stability constant) ([4]; 15 °C)	log K carb (carbamate stability constant) ([4]; 25 °C)	log K carb (carbamate stability constant) ([4]; 35 °C)	log K carb (carbamate stability constant) ([4]; 45 °C)	Structure (SMILES)	pKa at 25° C. ([2]; Table 8)	also measured
8.6	8.4	−25.5	−53.9	15.3	19.6	3.84	8.77	3.65	8.43	8.08	3.41	7.86	−30.05	−58.97	2.35	2.22	2.02	1.84	NCc1ccncc1 [4-AMPy, 4-(aminomethyl)pyridine]		ΔH° of log K carb Prot ([4]; 15.0-45.0 °C): −38.08 kJ · mol^−1; ΔS° of log K carb Prot ([4]; 15.0-45.0 °C): 4.91 J · mol^−1 · K^−1; log K carb Prot ([4]; 15 °C): 7.15; log K carb Prot ([4]; 25 °C): 6.95; log K carb Prot ([4]; 35 °C): 6.69; log K carb Prot ([4]; 45 °C): 6.52; log K carb Prot 2 ([1]; 35 °C): 3.48
			−59.5		20		9.77		9.43	8.95		8.61	−36	−82	2.20	2.01	1.81	1.58	NCc1ccccc1 [BZA, benzylamine, reference compound]		
													−18	−35	1.85	1.76	1.66	1.55	NCCO [MEA, monoethanolamine, reference compound]		

— US12343676B2, “Process and system for capture of carbon dioxide” (COMMONWEALTH SCIENTIFIC AND INDUSTRIAL RESEARCH ORGANISATION, priority 2017, dated 2025)
